Reference: PMC11942905, “Identification of a Selective Inhibitor of Human NFS1, a Cysteine Desulfurase Involved in Fe-S Cluster Assembly, via Structure-Based Virtual Screening” (International Journal of Molecular Sciences, 2025)

Experiments:
Type in all cases: biochemical
NFS1 C158A = target: T1, NFS1 C158A (Homo sapiens, UniProt Q9Y697, C158A); assay: H2S-producing assay, NFS1 C158A mutant
T1 construct: His tag (N); made in house; host or cells: E. coli BL21(DE3)
Experimental: To further validate the accuracy of the simulated results, the residues Cys158, Glu387, Lys157, and His156 were mutated to alanine using site-directed mutagenesis.
For the expression and purification of NFS1Δ1-55/ISD11 in E. coli, the plasmid pNFS1-ISD11 was transformed into BL21(DE3) cells. The cells were grown at 37 °C in 1 L cultures of LB medium containing chloramphenicol (50 μg/ml) until the optical density at 600 nm (OD600) reached 0.6–0.8. Protein expression was induced by adding 0.1 mM isopropyl β-D-1-thiogalactopyranoside (IPTG), followed by an additional 12 h of incubation at 25 °C. The cells were harvested by centrifugation at 8000 rpm for 10 min at 4 °C, then resuspended in lysis buffer containing 50 mM phosphate-buffered saline (PBS, pH 7.4), 500 mM NaCl, 100 mg/L lysozyme, 30 mM imidazole, and 1 mM phenylmethanesulfonyl fluoride (PMSF). The resuspended cells were incubated on ice for 1 h, followed by sonication using an Ultrasonic Cell Disruption System (Scientz, Ningbo, China). The supernatant was obtained by centrifugation at 12,000 rpm for 30 min at 4 °C and was loaded onto a HisTrap FF column (GE Healthcare, Chicago, MA, USA) pre-equilibrated with lysis buffer. […] The protein concentration was measured using a BCA protein assay reagent kit (TransGen Biotech, Beijing, China).

[1] = target: T2, human cystathionine-β-synthase (CBS) (Homo sapiens, UniProt P35520); assay: Selectivity assay, H2S-producing activity of CBS; conditions: at 100 µM
T2 construct: made in house; host or cells: E. coli
T2 sequence (P35520 1-551): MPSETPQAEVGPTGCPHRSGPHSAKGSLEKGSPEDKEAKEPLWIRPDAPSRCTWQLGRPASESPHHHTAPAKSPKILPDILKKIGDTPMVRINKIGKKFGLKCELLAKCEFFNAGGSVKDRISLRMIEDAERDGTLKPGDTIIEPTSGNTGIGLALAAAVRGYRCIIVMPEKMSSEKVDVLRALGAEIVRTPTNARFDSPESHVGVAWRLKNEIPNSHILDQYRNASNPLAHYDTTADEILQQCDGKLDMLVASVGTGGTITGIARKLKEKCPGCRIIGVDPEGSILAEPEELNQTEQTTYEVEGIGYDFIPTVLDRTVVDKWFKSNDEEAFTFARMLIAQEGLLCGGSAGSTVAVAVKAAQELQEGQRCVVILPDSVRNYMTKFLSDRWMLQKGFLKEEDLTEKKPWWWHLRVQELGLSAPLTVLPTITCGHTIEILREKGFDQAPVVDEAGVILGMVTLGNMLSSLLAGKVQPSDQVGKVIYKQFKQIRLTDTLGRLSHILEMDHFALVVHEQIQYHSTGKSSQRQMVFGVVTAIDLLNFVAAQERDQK
Experimental: (§1) To evaluate the selectivity of Compounds 53 and 56, their effects on the activities of two other PLP-dependent enzymes, human cystathionine-β-synthase (CBS) and cystathionine-γ-lyase (CSE), were determined using a H2S-producing assay. Human CBS and CSE were expressed and purified in E. coli with a purity exceeding 90%, as confirmed by SDS-PAGE (Figures S4A and S5A). Subsequently, the H2S-producing activities of CBS and CSE were assessed in the presence of different concentrations of Compounds 53 and 56. A widely used CBS inhibitor, AOAA, and a specific CSE inhibitor, PAG, were used as positive controls (Figures S4B and S5B).
(§2) The H2S-producing activity of CBS was measured as previously described. The reaction mixture (200 μL) contained 50 mM of Hepes buffer (pH 7.4), 2 mM of homocysteine, 10 μM of PLP, 0.4 mM of lead nitrate, and 5 μg of CBS protein. It was preincubated at 37 °C for 3 min, and the reaction was initiated by the addition of 2 mM of cysteine. The reaction was monitored in a multifunctional microplate reader at 37 °C for 10 min. An extinction coefficient of 5500 M^−1 cm^−1 at 390 nm was used to calculate the lead sulfide concentration. The method used to determine CSE activity in the H2S-producing assay was identical to the CBS assay, except that 1 mM of cysteine was used as the sole substrate. […]

[2] = target: T3, cystathionine-γ-lyase (CSE) (Homo sapiens, UniProt P32929); assay: Selectivity assay, H2S-producing activity of CSE; conditions: at 100 µM
T3 construct: made in house; host or cells: E. coli
Experimental: as §1, §2

T3 sequence (P32929 whole entry): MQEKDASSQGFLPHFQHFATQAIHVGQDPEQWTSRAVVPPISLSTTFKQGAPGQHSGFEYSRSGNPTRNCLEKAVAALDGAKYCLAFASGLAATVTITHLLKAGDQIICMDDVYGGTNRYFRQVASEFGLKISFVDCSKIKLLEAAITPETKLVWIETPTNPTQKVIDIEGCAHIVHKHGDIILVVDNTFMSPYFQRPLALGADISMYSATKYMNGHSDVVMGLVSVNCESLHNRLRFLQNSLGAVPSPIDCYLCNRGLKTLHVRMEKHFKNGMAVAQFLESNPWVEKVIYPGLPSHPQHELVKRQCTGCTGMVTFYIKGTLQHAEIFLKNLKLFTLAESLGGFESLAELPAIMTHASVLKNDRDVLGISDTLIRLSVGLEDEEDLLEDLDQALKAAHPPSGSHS
T1 sequence (Q9Y697 56-457 C158A): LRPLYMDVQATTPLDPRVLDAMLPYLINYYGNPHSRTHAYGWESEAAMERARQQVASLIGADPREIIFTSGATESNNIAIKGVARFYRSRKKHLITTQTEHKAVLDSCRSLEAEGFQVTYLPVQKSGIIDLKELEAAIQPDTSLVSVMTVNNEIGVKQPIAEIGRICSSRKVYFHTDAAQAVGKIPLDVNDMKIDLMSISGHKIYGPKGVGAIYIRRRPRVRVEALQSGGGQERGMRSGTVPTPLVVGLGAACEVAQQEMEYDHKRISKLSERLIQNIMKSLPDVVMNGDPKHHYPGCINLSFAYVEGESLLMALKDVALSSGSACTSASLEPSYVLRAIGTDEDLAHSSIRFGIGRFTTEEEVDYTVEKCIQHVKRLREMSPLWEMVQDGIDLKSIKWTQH

## COc1cc(/C=N/NC(=O)COc2ccc(Cl)cc2Cl)ccc1O [Compound 53]
NFS1 C158A
  IC50: 114 ± 3.45 µM
[1]
  inhibitory effect on CBS: no significant inhibitory effects
[2]
  inhibitory effect on CSE: no significant inhibitory effects
